Calls of active or inactive are those of the source.
Assays:
[1] = molecular target: ADP-ribosylation factor GTPase-activating protein 1 (Rattus norvegicus, UniProt Q62848); experiment: Fluorescence polarization-based biochemical high throughput dose response screening assay to identify inhibitors of ADP-ribosylation factor GTPase activating protein 1 (ARFGAP1).; format: functional
[2] = molecular target: T1, Carboxy-terminal domain RNA polymerase II polypeptide A small phosphatase 1 (Homo sapiens, UniProt Q9GZU7); experiment: CTDSP1 inhibitors, concentration-response, biochemical, absorbance readout, ultra-high-throughput screen actives (AID 540297); format: functional
T1 sequence (Q9GZU7 whole entry): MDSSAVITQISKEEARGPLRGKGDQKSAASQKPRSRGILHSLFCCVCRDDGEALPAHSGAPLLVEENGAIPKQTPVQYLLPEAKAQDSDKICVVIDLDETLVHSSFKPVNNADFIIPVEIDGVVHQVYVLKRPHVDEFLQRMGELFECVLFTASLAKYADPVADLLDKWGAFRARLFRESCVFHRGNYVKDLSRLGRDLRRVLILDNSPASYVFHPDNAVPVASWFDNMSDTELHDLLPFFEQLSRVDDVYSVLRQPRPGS

[3] = molecular target: T2, Small ubiquitin-related modifier 1 (Homo sapiens, UniProt P63165); experiment: SUMO1 protein interaction blockers, potency – biochemical, fluorescence polarization, uHTS hits, dose response (AID 624382); format: functional; details: read-out: IC50_Mean
[4] = molecular target: T2, Small ubiquitin-related modifier 1; experiment: SUMO1 protein-protein binding blockers, potency – biochemical, FRET, dose response (AID 624383); format: functional; details: read-out: IC50_Mean
[5] = molecular target: Interleukin-8 (Homo sapiens, UniProt P10145); experiment: Dose Response confirmation of uHTS small molecule hits for cystic fibrosis induced NFkb Inhibitors in a PAF-induced IL8 counterscreen.; format: functional; details: read-out: IC50_Mean
[6] = molecular target: Dual specificity protein kinase CLK1 (Homo sapiens, UniProt P49759); experiment: inhibition of human CLK1 activity – biochemical, cherry-picked samples, selectivity assay for Dyrk1A inhibitor project, dose response (AID 588811)
[7] = molecular target: T3, ATP-dependent translocase ABCB1 (Homo sapiens, UniProt P08183); experiment: inhibition of BCRP-mediated JC-1 efflux – Ig-MXP3 cells, flow cytometry, set 2, dose response (AID 504566); format: functional; details: read-out: EC50_MICROM_;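 also: flow cytometry median green fluorescence of retained JC-1 dye; potency of efflux pump inhibition measured as rising substrate retention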
[8] = molecular target: T3, ATP-dependent translocase ABCB1; experiment: P-gp JC-1 efflux blockade concentration-response – Jurkat-DNR cells, flow cytometry, set 2, dose response (AID 504569); format: functional; details: read-out: EC50_MICROM_;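 also: potency of pump inhibitors that raise cellular JC-1 green fluorescence up to the nicardipine level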
[9] = molecular target: Cyclin-dependent kinase 9 (Homo sapiens, UniProt P50750); format: functional;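 also: value from the CDK9 entry of a kinome-spanning kinase panel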
[10] = molecular target: Cyclin-dependent kinase 7 (Homo sapiens, UniProt P50613); format: functional;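 also: value comes from a kinome-wide kinase profiling panel in which CDK7 is one member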
[11] = molecular target: Cyclin-dependent kinase 8 (Homo sapiens, UniProt P49336); experiment: Navigating the Kinome. Panel member name: CDK8; format: functional
[12] = molecular target: T4, Leucine aminopeptidase (Plasmodium falciparum 3D7, UniProt Q8IL11); experiment: P. falciparum M17LAP inhibitors, primary screen, biochemical, fluorogenic H-Leu-NHMec substrate, 1536-well (AID 1619); format: functional
T4 sequence (Q8IL11 whole entry): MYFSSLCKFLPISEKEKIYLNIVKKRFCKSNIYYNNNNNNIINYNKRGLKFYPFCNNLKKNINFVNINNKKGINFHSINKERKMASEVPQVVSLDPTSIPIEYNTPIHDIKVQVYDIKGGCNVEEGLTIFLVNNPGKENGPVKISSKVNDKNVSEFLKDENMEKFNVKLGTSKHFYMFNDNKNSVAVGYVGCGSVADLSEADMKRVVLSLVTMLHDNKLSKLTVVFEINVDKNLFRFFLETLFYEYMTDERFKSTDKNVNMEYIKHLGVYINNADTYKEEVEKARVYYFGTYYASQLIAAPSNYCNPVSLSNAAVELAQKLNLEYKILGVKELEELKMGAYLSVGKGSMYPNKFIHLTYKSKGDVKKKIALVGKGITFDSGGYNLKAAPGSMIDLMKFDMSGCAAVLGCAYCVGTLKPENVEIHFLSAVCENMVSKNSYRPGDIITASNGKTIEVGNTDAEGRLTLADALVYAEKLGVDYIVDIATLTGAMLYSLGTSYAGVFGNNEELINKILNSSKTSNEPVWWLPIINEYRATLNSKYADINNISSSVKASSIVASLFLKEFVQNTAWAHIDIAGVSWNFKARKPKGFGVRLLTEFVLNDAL

[13] = molecular target: T5, Probable nicotinate-nucleotide adenylyltransferase (Staphylococcus aureus (strain N315), UniProt P65502); format: functional, Staphylococcus aureus subsp. aureus N315;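 as to IC50 Mean: confirmatory dose-response retesting of NadD inhibitor hits first found in an ultra-high-throughput screen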
[14] = molecular target: T6, Beta-lactamase (Pseudomonas aeruginosa, UniProt Q79MP6); experiment: […] counterscreen for selective VIM-2 inhibitors: dose response biochemical high throughput screening assay to identify inhibitors of IMP-1 metallo-beta-lactamase.
[15] = molecular target: T6, Beta-lactamase; experiment: inhibition of IMP-1 beta-lactamase activity – biochemical, epi-absorbance, selectivity assay for VIM-2 inhibitor project, dose response (AID 1920)
[16] = molecular target: T5, Probable nicotinate-nucleotide adenylyltransferase; format: functional, Staphylococcus aureus subsp. aureus N315; details: read-out: IC50_Mean
[17] = molecular target: Beta-lactamase (Salmonella choleraesuis (strain SC-B67), UniProt Q5J463); experiment: Epi-absorbance-based counterscreen for selective VIM-2 inhibitors: dose response biochemical high throughput screening assay to identify inhibitors of TEM-1 serine-beta-lactamase.
[18] = molecular target: T7, Beta Lactamase (Pseudomonas aeruginosa, UniProt Q932Y6); experiment: concentration-dependent VIM-2 enzyme inhibition – biochemical, epi-absorbance readout, selective inhibitors, dose response (AID 1919)
[19] = molecular target: T7, Beta Lactamase; experiment: VIM-2 CCF2 hydrolysis inhibition, assay artifact filter – biochemical, FRET readout, CCF2 substrate, artefact control for selective VIM-2 inhibitor project, dose response (AID 1926)
[20] = molecular target: Mitogen-activated protein kinase 13 (Homo sapiens, UniProt O15264); format: functional
Chain of Mitogen-activated protein kinase 13 (O15264 whole entry): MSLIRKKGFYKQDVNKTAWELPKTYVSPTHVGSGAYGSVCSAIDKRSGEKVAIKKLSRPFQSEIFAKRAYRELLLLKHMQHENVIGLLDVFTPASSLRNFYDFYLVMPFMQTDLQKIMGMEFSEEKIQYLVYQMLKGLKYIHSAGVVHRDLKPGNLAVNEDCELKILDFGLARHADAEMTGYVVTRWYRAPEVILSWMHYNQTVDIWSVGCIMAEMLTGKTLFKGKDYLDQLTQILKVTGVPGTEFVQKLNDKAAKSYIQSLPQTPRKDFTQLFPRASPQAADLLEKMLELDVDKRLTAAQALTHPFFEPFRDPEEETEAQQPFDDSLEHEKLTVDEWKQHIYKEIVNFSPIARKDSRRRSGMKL

T7 sequence (Q932Y6 whole entry): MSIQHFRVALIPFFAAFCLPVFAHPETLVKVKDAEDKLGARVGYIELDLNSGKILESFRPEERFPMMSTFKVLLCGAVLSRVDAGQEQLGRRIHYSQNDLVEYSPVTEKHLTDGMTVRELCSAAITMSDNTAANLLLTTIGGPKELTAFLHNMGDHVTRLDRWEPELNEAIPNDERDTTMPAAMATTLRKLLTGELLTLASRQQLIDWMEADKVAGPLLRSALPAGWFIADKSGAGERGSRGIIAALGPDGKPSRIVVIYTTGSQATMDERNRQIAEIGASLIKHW
T6 sequence (Q79MP6 whole entry): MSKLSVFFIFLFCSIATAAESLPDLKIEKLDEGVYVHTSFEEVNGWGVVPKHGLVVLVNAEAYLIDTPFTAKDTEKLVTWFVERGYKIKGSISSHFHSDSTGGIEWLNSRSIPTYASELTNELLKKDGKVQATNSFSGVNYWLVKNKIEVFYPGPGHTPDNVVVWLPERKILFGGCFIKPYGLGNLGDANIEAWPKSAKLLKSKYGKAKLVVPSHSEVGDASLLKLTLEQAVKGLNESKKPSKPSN
T5 sequence (P65502 whole entry): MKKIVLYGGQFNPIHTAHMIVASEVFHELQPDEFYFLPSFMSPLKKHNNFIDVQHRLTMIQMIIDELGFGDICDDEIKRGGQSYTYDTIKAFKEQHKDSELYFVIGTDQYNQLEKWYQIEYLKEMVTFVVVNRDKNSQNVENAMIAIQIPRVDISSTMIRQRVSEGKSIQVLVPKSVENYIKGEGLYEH
T2 sequence (P63165 whole entry): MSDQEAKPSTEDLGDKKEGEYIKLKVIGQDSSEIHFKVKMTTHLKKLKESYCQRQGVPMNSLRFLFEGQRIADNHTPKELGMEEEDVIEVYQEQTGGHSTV
T3 sequence (P08183 whole entry): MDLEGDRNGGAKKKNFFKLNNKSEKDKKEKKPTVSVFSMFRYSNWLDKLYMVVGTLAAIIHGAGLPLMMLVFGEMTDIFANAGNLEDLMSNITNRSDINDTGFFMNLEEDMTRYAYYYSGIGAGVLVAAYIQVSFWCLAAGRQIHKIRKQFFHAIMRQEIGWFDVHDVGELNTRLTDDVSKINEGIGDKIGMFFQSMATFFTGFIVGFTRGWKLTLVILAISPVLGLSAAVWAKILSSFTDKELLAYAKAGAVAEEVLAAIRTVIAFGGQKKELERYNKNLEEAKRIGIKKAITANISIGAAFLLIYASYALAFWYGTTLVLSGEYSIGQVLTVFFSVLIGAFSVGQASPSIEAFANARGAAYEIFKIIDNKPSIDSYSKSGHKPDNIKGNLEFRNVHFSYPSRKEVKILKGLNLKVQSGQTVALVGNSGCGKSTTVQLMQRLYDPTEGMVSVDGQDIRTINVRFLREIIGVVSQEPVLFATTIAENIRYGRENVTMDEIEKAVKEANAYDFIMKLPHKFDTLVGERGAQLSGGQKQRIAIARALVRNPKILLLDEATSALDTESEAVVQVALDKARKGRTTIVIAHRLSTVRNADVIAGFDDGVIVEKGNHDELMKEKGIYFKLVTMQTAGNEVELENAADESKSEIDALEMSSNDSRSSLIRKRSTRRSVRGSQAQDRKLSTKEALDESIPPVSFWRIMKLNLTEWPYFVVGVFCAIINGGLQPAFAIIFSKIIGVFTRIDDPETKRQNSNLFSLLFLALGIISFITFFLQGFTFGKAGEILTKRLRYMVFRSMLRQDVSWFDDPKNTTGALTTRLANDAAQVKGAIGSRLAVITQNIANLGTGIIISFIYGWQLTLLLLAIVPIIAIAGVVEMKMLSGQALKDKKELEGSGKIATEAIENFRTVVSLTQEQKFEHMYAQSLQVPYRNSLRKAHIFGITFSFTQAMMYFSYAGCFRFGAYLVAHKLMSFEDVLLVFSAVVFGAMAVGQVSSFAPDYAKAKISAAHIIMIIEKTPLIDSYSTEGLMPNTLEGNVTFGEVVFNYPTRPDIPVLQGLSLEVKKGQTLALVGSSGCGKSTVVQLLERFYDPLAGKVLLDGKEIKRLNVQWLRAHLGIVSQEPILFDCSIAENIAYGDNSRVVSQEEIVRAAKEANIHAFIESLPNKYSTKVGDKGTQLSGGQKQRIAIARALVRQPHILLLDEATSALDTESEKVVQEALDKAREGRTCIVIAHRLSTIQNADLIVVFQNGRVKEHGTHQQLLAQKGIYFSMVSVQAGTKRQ
Chain of Cyclin-dependent kinase 7 (P50613 whole entry): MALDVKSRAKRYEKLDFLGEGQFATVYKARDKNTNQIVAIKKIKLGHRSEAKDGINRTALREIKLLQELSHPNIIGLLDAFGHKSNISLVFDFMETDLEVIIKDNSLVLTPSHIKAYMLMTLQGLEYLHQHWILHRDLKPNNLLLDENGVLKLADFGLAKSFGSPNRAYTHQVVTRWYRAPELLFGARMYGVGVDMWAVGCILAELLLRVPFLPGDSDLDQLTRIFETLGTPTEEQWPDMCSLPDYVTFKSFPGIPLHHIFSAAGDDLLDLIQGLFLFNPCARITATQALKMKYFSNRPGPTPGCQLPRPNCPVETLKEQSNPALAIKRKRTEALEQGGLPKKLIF
Chain of Beta-lactamase (Salmonella choleraesuis (strain SC-B67), UniProt Q5J463) (Q5J463 whole entry): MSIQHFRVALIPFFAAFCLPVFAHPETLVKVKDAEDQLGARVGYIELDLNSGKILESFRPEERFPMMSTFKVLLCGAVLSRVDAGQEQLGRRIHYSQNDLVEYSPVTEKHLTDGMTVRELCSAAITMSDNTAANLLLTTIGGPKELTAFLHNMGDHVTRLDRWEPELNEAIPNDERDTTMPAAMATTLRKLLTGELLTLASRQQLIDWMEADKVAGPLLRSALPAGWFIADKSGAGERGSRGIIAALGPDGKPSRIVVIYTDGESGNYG
Chain of Interleukin-8 (P10145 whole entry): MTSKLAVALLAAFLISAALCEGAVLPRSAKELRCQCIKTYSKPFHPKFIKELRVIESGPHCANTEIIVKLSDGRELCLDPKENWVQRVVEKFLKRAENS
Chain of Cyclin-dependent kinase 8 (P49336 whole entry): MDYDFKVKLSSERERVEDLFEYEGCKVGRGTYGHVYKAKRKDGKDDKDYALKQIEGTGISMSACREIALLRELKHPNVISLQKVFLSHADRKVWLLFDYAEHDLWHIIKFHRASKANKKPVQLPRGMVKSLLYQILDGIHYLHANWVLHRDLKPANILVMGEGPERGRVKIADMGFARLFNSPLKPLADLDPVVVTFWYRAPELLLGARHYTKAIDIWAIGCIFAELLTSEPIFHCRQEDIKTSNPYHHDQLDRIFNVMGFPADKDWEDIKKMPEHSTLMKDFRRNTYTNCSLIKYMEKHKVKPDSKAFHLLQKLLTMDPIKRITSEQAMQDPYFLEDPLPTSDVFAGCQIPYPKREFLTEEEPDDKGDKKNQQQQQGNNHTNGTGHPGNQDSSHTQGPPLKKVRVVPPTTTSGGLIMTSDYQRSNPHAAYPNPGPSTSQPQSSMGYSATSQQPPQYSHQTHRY
Chain of ADP-ribosylation factor GTPase-activating protein 1 (Q62848 whole entry, the tested form may be a part): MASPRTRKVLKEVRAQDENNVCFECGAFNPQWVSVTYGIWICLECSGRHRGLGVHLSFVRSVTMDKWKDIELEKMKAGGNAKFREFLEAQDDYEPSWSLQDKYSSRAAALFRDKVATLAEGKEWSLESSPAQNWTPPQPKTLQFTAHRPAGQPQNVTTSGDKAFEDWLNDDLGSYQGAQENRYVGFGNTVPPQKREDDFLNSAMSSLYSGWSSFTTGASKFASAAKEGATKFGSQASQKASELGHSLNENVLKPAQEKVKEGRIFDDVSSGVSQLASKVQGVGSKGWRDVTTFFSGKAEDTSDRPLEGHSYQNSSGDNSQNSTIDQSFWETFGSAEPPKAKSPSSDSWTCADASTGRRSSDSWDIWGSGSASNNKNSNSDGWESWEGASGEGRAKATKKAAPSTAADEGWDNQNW
Chain of Dual specificity protein kinase CLK1 (P49759 whole entry): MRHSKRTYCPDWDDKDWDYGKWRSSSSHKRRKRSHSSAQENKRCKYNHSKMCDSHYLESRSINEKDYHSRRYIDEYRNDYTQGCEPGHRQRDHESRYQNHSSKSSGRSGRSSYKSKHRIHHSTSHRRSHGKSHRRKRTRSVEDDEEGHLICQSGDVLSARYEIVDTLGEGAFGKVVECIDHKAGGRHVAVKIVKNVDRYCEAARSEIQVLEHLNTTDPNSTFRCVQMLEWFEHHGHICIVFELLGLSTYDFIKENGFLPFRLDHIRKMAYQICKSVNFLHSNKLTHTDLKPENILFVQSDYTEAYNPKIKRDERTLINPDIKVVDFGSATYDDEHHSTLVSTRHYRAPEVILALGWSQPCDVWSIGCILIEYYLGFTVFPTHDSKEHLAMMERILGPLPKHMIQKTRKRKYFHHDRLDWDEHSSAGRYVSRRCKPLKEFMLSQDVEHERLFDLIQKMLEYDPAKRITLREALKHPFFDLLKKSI
Chain of Cyclin-dependent kinase 9 (P50750 whole entry): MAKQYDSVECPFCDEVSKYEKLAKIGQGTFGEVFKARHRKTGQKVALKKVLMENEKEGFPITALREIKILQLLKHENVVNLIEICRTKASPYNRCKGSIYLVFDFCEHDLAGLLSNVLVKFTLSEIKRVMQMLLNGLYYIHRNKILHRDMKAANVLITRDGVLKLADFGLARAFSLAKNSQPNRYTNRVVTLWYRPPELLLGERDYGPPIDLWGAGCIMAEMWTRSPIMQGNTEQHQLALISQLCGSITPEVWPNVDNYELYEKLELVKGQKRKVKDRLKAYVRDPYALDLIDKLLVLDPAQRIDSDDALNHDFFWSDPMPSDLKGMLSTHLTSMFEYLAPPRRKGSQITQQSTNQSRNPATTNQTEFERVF

## O=C(Nc1nnc(-c2ccc3c(c2)OCCO3)o1)c1ccc(Cc2ccccc2)cc1
[1]
  IC50: 7.92 µM (active)

## CC(Cc1c[nH]c2ccccc12)C(=O)NCc1ccco1 (stereo not given)
[2]
  IC50: 19.4 µM (active)
[3]
  IC50: > 66.6 µM (inactive)
[4]
  IC50: 12.2 µM (active)

## c1ccc2c(-c3cncc4ccccc34)cncc2c1
[5]
  IC50: 16 µM (inactive)

## Clc1ccc(Nc2nccc(-c3ccc4c(c3)OCO4)n2)cc1
[6]
  AC50: 15.8 µM (active)

## O=C(c1ccco1)N1CCN(c2c3c(nc4cc(-c5cccc(F)c5)nn24)CCCC3)CC1
[7]
  EC50: 1.79 µM (active)
[8]
  EC50: 4.41 µM (active)

## OCC1OC(n2cnc3cc(Cl)c(Cl)cc32)C(O)C1O (stereo not given)
[9]
  Ki: 0.126 µM (active)
[10]
  Ki: 2.51 µM (active)
[11]
  Ki: 2 µM (active)

## O=C(O)c1cccc(NC(=S)N/N=C/c2ccccc2OCc2ccc(Br)cc2)c1
[12]
  IC50: 13.3 µM (active)
[13]
  IC50: 3.73 µM (active)
[14]
  IC50: > 59.6 µM (inactive)
[15]
  IC50: > 59.6 µM (inactive)
[16]
  IC50: 15.4 µM (active)
[17]
  IC50: > 59.6 µM (inactive)
[18]
  IC50: 10 µM (inactive)
[19]
  IC50: 0.885 µM (active)

## CNCc1ccc(-c2[nH]c3cc(F)cc4c3c2CCNC4=O)cc1 [RUCAPARIB]
[20]
  Ki: > 7.94 µM (inactive)

— ChEMBL document CHEMBL1201862, “PubChem BioAssay data set” (2004)
